These are literature values, as cited in patent US20240366505A1, “Liquid Resin Extended-Release Oral Naltrexone Formulation for Treating Autism-Related Disorders” (AARDVARK THERAPEUTICS, INC., priority 2022, published 2024).

Like-named read-outs stand apart in the source and are kept apart here.

For data set [1] the following is noted: single 50 mg REVIA tablet.
The conditions of data set [2]: 6-β-naltrexol; 50 mg REVIA tablets once daily for 7 days.
Data set [3] relates to ASD children. Conditions: 20 mg immediate release per day for 4 weeks.
The conditions of data set [4]: in vivo.
Data set [5] deals with children with ASD. Conditions: 1.0 mg/kg single daily immediate release oral dose, 12 or 14 days.
Data set [6] deals with autistic behavior. Conditions: 0.5, 1.0 and 2.0 mg/kg immediate release oral.
The conditions of data set [7]: 50 mg once daily.

Take `Oc1ccc2c3c1O[C@H]1[C@H](O)CC[C@@]4(O)[C@@H](C2)N(CC2CC2)CC[C@]314` [6-β-naltrexol]: in data set [1] (6-β-naltrexol, mean (CV%)), the area under the curve AUC(0-inf) is 717.3 ng·h/mL, the peak concentration (Cmax) is 85.6 ng/mL and the Tmax was 1.05 h. Also, in data set [2], the “AUC(0-τ)” value was 788 ± 134.8 ng·h/mL and the highest concentration (Cmax) is 96.1 ± 21.05 ng/mL.

With `O=C1CC[C@@]2(O)[C@H]3Cc4ccc(O)c5c4[C@@]2(CCN3CC2CC2)[C@H]1O5` [naltrexone, 17-(cyclopropylmethyl)-4,5α-epoxy-3,14-dihydroxy-morphinan-6-one], in data set [3], the “CGI ratings of the teachers” value is listed as “Significant difference” and the “behavior ratings completed by the teachers (Aberrant Behavior Checklist (ABC) scores)” value is “significant changes”. Moreover, in data set [4], the “incidence of difficulty sleeping, anxiety, nervousness, abdominal pain/cramps, nausea and/or vomiting, low energy, joint/muscle pain, headache” value is recorded as “Greater than 10%” and the “incidence of loss of appetite, diarrhea, constipation, thirstiness, increased energy, feeling down, irritability, dizziness, skin rash, delayed ejaculation, erectile dysfunction, chills” value was “Less than 10%”. Moreover, the “changes in parent measures (CGI, Conners IHF, SE-Restlessness) and Teacher CGI” value in data set [5] is on record as “achieved statistical significance”. In addition, the time of peak concentration (Tmax) in data set [1] (naltrexone, Mean (CV %)) was 1.07 h. Also, the “effect on autistic behavior and gaze aversion” value in data set [6] is “reverse autistic behavior and gaze aversion”. Also, for the setting “after 100 mg daily doses”, the accumulation entry is on record as “do not accumulate”. Further, the “excretion of parent drug and metabolites by the kidney” value (human, in vivo) is on record as 53-79 % of the dose. The “dose absorbed from the gastrointestinal tract” value (human, in vivo, po) is recorded as “approximately 96%”. For the same compound, the “urinary excretion of unchanged naltrexone” value (immediate release formulations) is listed as “less than 2 % of an oral dose”. Besides, the “dose proportionality of AUC and Cmax” value (over the range of 50-200 mg) was “dose-proportional”. In data set [7], the “rate of early discontinuation of treatment versus placebo” value is on record as “greater rate”. For the same compound, the “adverse effects versus placebo” value in data set [7] (weeks 1, 5 and 8) is given as “significantly more adverse effects”.

A word on the AUC(0-inf): it is total exposure, with the tail of the curve extrapolated. By Cmax is commonly meant the peak of the concentration-time curve. Usually Tmax stands for the time at which the peak concentration occurs.
